Laboratory results reported in US6030960A, “Method of treating hepatitis virus infections” (priority 1998, dated 2000).
Values joined by “and” are separate entries in the source; they are usually repeats but may differ in a detail not shown here. Equal entries are not always repeated. Where two headings read alike, the source gives them in different places.

Experiments:
Type in all cases: cell-based
[1] = Cytotoxicity of alkyl lipids, neutral red dye uptake (Table 1); conditions: human, hep-g2 cells
Outline: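 HepG2 cells carrying tandem HBV genomes, with a G418-resistance plasmid, were given four serial compound concentrations in triplicate in RPMI-1640 for nine days at 37° C, with periodic medium replacement. Viability was measured by 0.01% neutral red uptake (A510) and expressed as percent of untreated control wells ±SD.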

Hepatitis B virus [2] = assay: Anti-hepatitis B virus activity in HEP-G2 cells persistently infected with HBV (Table 2); conditions: Hepatitis B virus, HepG2, 216 h
Outline: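 HBV-persistently infected HepG2 cells were dosed daily with 10 μM compound in 20% FBS medium for 9 days. Medium HBsAg and HBeAg were measured by EIA and virion DNA by slot-blot hybridisation, each relative to untreated controls. EC90 (90% drop in HBV DNA replication intermediates) came from linear regression.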

Hepatitis B virus [3] = assay: CP-51 against HBV-induced antigen syntheses in HEP-G2 cells persistently infected with HBV (Table 3); conditions: for activity at 10 µM: Hepatitis B virus, HepG2, 216 h
Protocol: (§1) HEP-G2 cells persistently infected with HBV were treated daily with fresh D-MEM containing 20% FBS and 10 μM compound. After 9 days incubation and treatment, the overlay medium was harvested to assay the quantity of Hepatitis B virus s antigen (HBsAg) and HBeAg by EIA (Abbott Laboratories). The overlay medium was diluted to levels of antigen in the linear range of the assay. Standard curves using dilutions of positive HBsAg and HBeAg controls were included in each assay. Virion DNA was assayed using the method set forth in Korba and Gerin, Antiviral Res., 19, 5,5-70 (1992), incorporated by reference herein. HBV DNA was extracted from the overlay medium containing virus particles and analyzed by a slot-blot hybridization technique using ^32 P-labelled 3.2 Kb Eco R1 HBV DNA fragment by comparisons to HBV standards present on nitrocellulose filters using an AMBIS beta scanner. EC90 values (90% effective concentration, i.e., drug concentration which induces a 90% decrease in the levels of HBV DNA replication intermediates in treated versus control cells) were calculated by linear regression analysis. The relative levels of HBsAg, HBeAg and virion DNA were calulated as a percentage of the average levels obtained from the untreated controls.
In contrast, CP-51 inhibited HBeAg and HBcAg syntheses by 76 and 68%, respectively.

Hepatitis B virus [4] = assay: Effects of CP-51 on HBV-induced DNA and RNA synthesis (Table 4); conditions: for mrna remaining at 10 µM / activity at 10 µM: Hepatitis B virus, HepG2, 216 h
Protocol: as §1
Experiments were performed to determine the effects of CP-51 on HBV induced DNA and RNA syntheses. HEP-G2 cells persistently infected with HBV were treated daily with fresh D-MEM containing 20% FBS and 10 μM compound. After 9 days incubation and treatment the cells and overlay medium were harvested separately to assay the quantity of nucleic acids. Details of the methodology of the assays are given in Section B above. Extracellular virion DNA in untreated cells ranged from 50 to 150 pg/ml in the overlay medium. Intracellular HBV DNA replication intermediates (RI) in untreated cells ranged from 50 to 100 pg/μg cell DNA. Hybridization analysis results in about 1 pg intracellular HBV DNA/μg cellular DNA to 2-3 genomic copies per cell and 1.0 pg of extracellular HBV DNA/ml overlay medium to […] viral particles/ml. HBV RNA was analyzed by Northern blot hybridization analysis using a ^32 P-labeled 3.2 Kb gel-purified cloned genomic probe. Quantitive analysis of intracellular HBV DNA anc 14BV RNA was performed using an AMBIS beta scanner.

Hepatitis B virus [5] = assay: Effect of alkyl lipids on HBV replication in HBV persistently infected human HEP G2 cells (Table 6); conditions: 10 μM
Outline: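 Persistently HBV-infected HepG2 cells exposed to compound for nine days at 37 °C, intracellular HBV DNA analysed 24 h after day nine. Episomal 3.2-3.8 Kb genomes and replication intermediates normalized to integrated HBV DNA; virion DNA detection cut-off 0.1 pg DNA/ml culture medium.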

Hepatitis B virus [6] = assay: Effect on synthesis of antigen markers in persistently infected human HEP G2 cell cultures (Table 7); conditions: nine days; for activity at 10 µM: Hepatitis B virus, HepG2, 216 h
Outline: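 Persistently infected HepG2 cells treated with compound for nine days at 37° C. Culture medium then harvested: HBsAg and HBeAg quantified by EIA, virion DNA by hybridisation-based DNA measurement. Sensitivity cut-off 0.1 pg DNA/ml medium.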

Hepatitis B virus [7] = assay: Effect of alkyl lipid on HBV induction of antigen markers, DNA and RNA in persistently infected human HEP-G2 cell cultures (Table 8); conditions: Hepatitis B virus, HepG2, 216 h
Protocol: Further analyses were carried out with compound CP-51. Again, the cells were treated for nine days at 37° C. The overlay medium was harvested to measure levels of HBsAg, HBeAg, HBcAg, virion DNA, RI DNA and RNA levels. HBsAg and HBeAg were assayed by EIA (Abbott Laboratories). HBcAg was assayed by a solid phase EIA. HBV RNA was analyzed by Northern blot hybridization using a ^32 P-labelled 3.2 Kb genomic probe. Intracellular HBV RNA and RI HBV DNA was quantitated using a AMBIS beta scanner.

[8] = read-out: Relative Level of HBeAg
[9] = read-out: Relative Level of HBsAg
[10] = read-out: Relative Level of Virion DNA
[11] = read-out: Relative Level of Total RNA

In the case of `Nc1ccn([C@H]2CC[C@@H](CO)O2)c(=O)n1` [2',3'-dideoxycytidine, 2', 3'-dideoxycytidine, reference compound], the viability at 216 h, 3 µM [1] is reported as 100 ± 1%, the viability at 216 h, 10 µM [1] is reported as 102 ± 1% and the viability at 216 h, 30 µM [1] is reported as 99 ± 2%. For the same compound, the viability at 216 h, 100 µM [1] was 35 ± 2%, the activity at 10 µM (Hepatitis B virus [2]; [8]) was 108% and the activity at 10 µM (Hepatitis B virus [2]; [9]) was 106%. For the same compound, the activity at 10 µM (Hepatitis B virus [2]; [10]) was 2%, the “inhibitory activity against HBV-induced antigen syntheses” value (Hepatitis B virus [3]; 10 μM, in words) was “no inhibitory activity” and the activity at 10 µM (Hepatitis B virus [3]; read-out: Relative Levels of HBcAg) was 102%. For the same compound, the activity at 10 µM (Hepatitis B virus [3]; read-out: Relative Levels of HBeAg) was 95%, the activity at 10 µM (Hepatitis B virus [3]; read-out: Relative Levels of HBsAg) was 96% and the “effect on HBV-induced DNA and RNA syntheses” value (Hepatitis B virus [4]; 10 μM, in words) was “inhibited HBV-induced DNA synthesis but not RNA syntheses”. It also gave a mrna remaining at 10 µM (Hepatitis B virus [4]; read-out: Relative Level of 2.1 Kb RNA) of 105%, an activity at 10 µM (Hepatitis B virus [4]; read-out: Relative Level of 3.2 Kb DNA) of 46% and a mrna remaining at 10 µM (Hepatitis B virus [4]; read-out: Relative Level of 3.6 Kb RNA) of 92%. It also gave an activity at 10 µM (Hepatitis B virus [4]; read-out: Relative Level of HBV RI) of 6%, a mrna remaining at 10 µM (Hepatitis B virus [4]; [11]) of 92% and an activity at 10 µM (Hepatitis B virus [4]; [10]) of 2%. For the same compound, the “HBV Virion DNA” value (Hepatitis B virus [5]; Day 0) was 67 pg/ml Culture Medium and 64 pg/ml Culture Medium and 58 pg/ml Culture Medium and 59 pg/ml Culture Medium, the “HBV Virion DNA” value (Hepatitis B virus [5]; Day 3) was 49 pg/ml Culture Medium and 55 pg/ml Culture Medium and 50 pg/ml Culture Medium and 58 pg/ml Culture Medium and the “HBV Virion DNA” value (Hepatitis B virus [5]; Day 6) was 20 pg/ml Culture Medium and 18 pg/ml Culture Medium and 17 pg/ml Culture Medium and 15 pg/ml Culture Medium. For the same compound, the “Intracellular HBV DNA, RI (replication intermediates)” value (Hepatitis B virus [5]; nine days) was 8 pg/μg Cell DNA and 7 pg/μg Cell DNA and 9 pg/μg Cell DNA, the “Relative Level of HBeAg” value (Hepatitis B virus [6]; 10 μM, 12960 min) was 115 % of Untreated Control and 98 % of Untreated Control and the “Relative Level of HBsAg” value (Hepatitis B virus [6]; 10 μM, 12960 min) was 112 % of Untreated Control and 102 % of Untreated Control. For the same compound, the “Relative Level of Virion DNA” value (Hepatitis B virus [6]; 10 μM, 12960 min) was 2 % of Untreated Control, the activity at 10 µM (Hepatitis B virus [6]; read-out: Relative Level of HBeAg, 10 μM) was 101% and the activity at 10 µM (Hepatitis B virus [6]; read-out: Relative Level of HBsAg, 10 μM) was 100%. It also gave an activity at 10 µM (Hepatitis B virus [6]; read-out: Relative Level of Virion DNA, 10 μM) of 2%, an activity at 10 µM (Hepatitis B virus [7]; read-out: Relative Level of HBcAg) of 102% and an activity at 10 µM (Hepatitis B virus [7]; [8]) of 95%. It also gave an activity at 10 µM (Hepatitis B virus [7]; [9]) of 96%, an activity at 10 µM (Hepatitis B virus [7]; read-out: Relative Level of Intracellular HBV-DNA) of 6% and an activity at 10 µM (Hepatitis B virus [7]; read-out: Relative Level of RI DNA) of 46%. The activity at 10 µM (Hepatitis B virus [7]; [11]) was 92% and the activity at 10 µM (Hepatitis B virus [7]; [10]) was 2%.
